In US8053460B2, “Indole derivatives having antitumor activity” (Sigma-Tau Industrie Farmaceutiche Riunite S.p.A., priority 2005, dated 2011):
Where two headings read alike, the source gives them in different places.

Assays:
Assay type in all cases: cell-based
[1] = system: NB4 human promyelocytic leukaemia cells; assay: Cytotoxicity (sulphorodamine B) on NB4 tumour cells
Protocol: (§1) To test the effects of the compounds on cell growth, NB4 human promyelocytic leukaemia, NCI-H460 non-small cell carcinoma cells and HCT-116 human colon carcinoma cells were used. NB4 and NCI-H460 tumour cells were grown RPMI 1640 containing 10% fetal bovine serum (GIBCO), whereas HCT-116 tumour cells were grown in McCoy's 5A containing 10% fetal bovine serum (GIBCO).
(§2) Tumour cells were seeded in 96-well tissue culture plates (Corning) at approximately 10% confluence and were allowed to attach and recover for at least 24 h. Varying concentrations of the drugs were then added to each well to calculate their IC50 value (the concentration which inhibits the 50% of cell survival). The plates were incubated for 24 h at 37° C. At the end of the treatment, for NB4 tumour cells in suspension, the procedure was performed as follows: medium culture was removed by centrifugation of the plates at 1600×g for 10 min and the surnatant was removed. 250 μl PBS were added, then the plates were centrifuged at 1600×g for 10 min, the surnatant was removed. 200 μl/well of medium culture RPMI 1640 containing 10% FCS were added and the plates were incubated at 37° C. for other 48 h. The plates were centrifuged again at 1600×g for 10 min, the medium culture was removed and 200 μl PBS and 50 μl of cold 80% TCA were added. The plates were incubated on ice for at least 1 h. TCA was removed, the plates were washed 3 times for immersion in distilled-water and dried on paper and at 40° C. for 5 min. Then 200 μl of 0.4% sulphorodamine B in 1% acetic acid were added. The plates were incubated at room temperature for other 30 min. Sulphorodamine B was removed, the plates were washed for immersion in 1% acetic acid for 3 times, then they were dried on paper and at 40° C. for 5 min. Then 200 μl Tris 10 mM were added, the plates were kept under stirring for 20 min. The survival cell was determined as optical density by a Multiskan spectrofluorimeter at 540 nm. For the tumour cells in adhesion (NCI-H460 and HCT-116), the procedure was as above mentioned, except that at the end of the treatment, the plates were washed by remotion of the surnatant and addition of PBS 3 times without centrifugation. Also the last day of the assay, the surnatant was removed without centrifugation.
(§3) The amount of cells killed was calculated as the percentage decrease in sulphorodamine B binding compared with control cultures. The IC50 values (the concentration which inhibits the 50% of cell survival) were calculated with the “ALLFIT” program.

[2] = system: NCI-H460 non-small cell carcinoma cells; assay: Cytotoxicity (sulphorodamine B) on NCI-H460 tumour cells; settings: Homo sapiens
Protocol: as §1, §2, §3

[3] = system: HCT-116 human colon carcinoma cells; assay: Cytotoxicity (sulphorodamine B) on HCT-116 tumour cells; settings: HCT-116 cells, 24 h treatment then 48 h recovery, read-out: HCT-116 IC50 ± SD
Protocol: as §1, §2, §3

[4] = Homo sapiens, range stated jointly for NB4, NCI-H460 and HCT-116, minor cytotoxicity, read-out: IC50 values on NB4 or NCI-H460 and HCT-116 (range given)
[5] = NCI-H460 cells, 24 h treatment then 48 h recovery, sulphorodamine B, read-out: NCI-H460 IC50 ± SD
[6] = Homo sapiens, NB-4, NB4 cells, 24 h treatment then 48 h recovery, sulphorodamine B, read-out: NB4 IC50 ± SD
[7] = NB4 cells, 24 h treatment then 48 h recovery, sulphorodamine B, read-out: NB4 IC50 ± SD
[8] = range stated jointly for NCI-H460 non-small cell lung cancer and HCT-116 colon cancer, read-out: IC50 values on NCI-H460 and HCT-116 (range given)

| Structure (SMILES) | IC50 [1, 4] [µM] | IC50 [2, 5] [µM] | IC50 [1, 6] [µM] | IC50 [1, 7] [µM] | IC50 [2, 8] [µM] | IC50 [3] [µM] |
| --- | --- | --- | --- | --- | --- | --- |
| O=C(CCCC(c1c[nH]c2ccccc12)c1c[nH]c2ccccc12)NO [ST2743, 5,5-Bis-(1H-indol-3-yl)-pentanoic acid hydroxyamide] | 8.8 to 88.8 | 88.8 ± 2.8 | – | – | – | – |
| O=C(CCCCCC(c1c[nH]c2cccc(F)c12)c1c[nH]c2cccc(F)c12)NO [ST3052, 7,7-Bis-(4-fluoro-1H-indol-3-yl)-heptanoic acid hydroxyamide] | – | 0.7 ± 0.09 | 0.4 to 2.3 | 0.6 ± 0.09 | 0.27 to 0.7 | 0.4 ± 0.1 |
| O=C(O)CCCCCC(c1c[nH]c2ccccc12)c1c[nH]c2ccccc12 [ST3127, 7,7-Bis-(1H-indol-3-yl)-heptanoic acid] | 8.8 to 88.8 | > 20 | > 20 | – | – | > 20 |
| Cc1ccc2[nH]cc(C(CCCCCC(=O)NO)c3c[nH]c4ccc(C)cc34)c2c1 [ST3044, 7,7-Bis-(5-methyl-1H-indol-3-yl)-heptanoic acid hydroxyamide] | – | 0.51 ± 0.1 | 0.15 | – | 0.27 to 0.7 | 0.27 ± 0.01 |
| O=C(CCC(c1c[nH]c2ccccc12)c1c[nH]c2ccccc12)NO [ST2408, N-Hydroxy-4,4-bis-(1H-indol-3-yl)-butyramide] | 8.8 to 88.8 | 25.9 ± 0.3 | 14.6 ± 0.6 | – | – | – |
| COc1cccc2c(C(CCCCCC(=O)NO)c3c[nH]c4c(OC)cccc34)c[nH]c12 [ST3043, 7,7-Bis-(7-methoxy-1H-indol-3-yl)-heptanoic acid hydroxyamide] | – | 0.55 ± 0.03 | 0.4 to 2.3 | 0.8 ± 0.01 | 0.27 to 0.7 | 0.41 ± 0.03 |
| O=C(CCCCCC(C1C=Nc2ccc(CN3CCOCC3)cc21)C1C=Nc2ccc(CN3CCOCC3)cc21)NO (centres unmarked) [ST3307, 7,7-Bis-(5-morpholin-4-ylmethyl-3H-indol-3-yl)-heptanoic acid hydroxyamide] | – | 1.1 ± 0.1 | 0.4 to 2.3 | 0.42 ± 0.02 | 0.6 to 5.8 | – |
| O=C(CCCCCC(c1c[nH]c2ccccc12)c1c[nH]c2ccccc12)NO [ST2741, 7,7-Bis-(1H-indol-3-yl)-heptanoic acid hydroxyamide] | – | 1.2 ± 0.1 | 0.4 to 2.3 | 0.6 ± 0.01 | 0.6 to 5.8 | 0.6 ± 0.02 |
| O=C(CCCCCc1c[nH]c2ccccc12)NO [ST2995, N-hydroxy-6-(1H-indol-3-yl)hexanamide] | 8.8 to 88.8 | 22 ± 1.7 | 8.8 ± 0.5 | – | – | – |
| O=C(CCCCCCC(c1c[nH]c2ccccc12)c1c[nH]c2ccccc12)NO [ST2889, 8,8-Bis-(1H-indol-3-yl)-octanoic acid hydroxyamide] | – | 2.7 ± 0.2 | – | – | 0.6 to 5.8 | 3.5 ± 0.2 |
| O=C(CCCCC(c1c[nH]c2ccccc12)c1c[nH]c2ccccc12)NO [ST2754, 6,6-Bis-(1H-indol-3-yl)-hexanoic acid hydroxyamide] | – | 5.2 ± 0.3 | – | – | 0.6 to 5.8 | 5.8 ± 0.2 |
| O=C(CCCCCC(c1cc2ccccc2[nH]1)c1c[nH]c2ccccc12)NO (centres unmarked) [ST3292, 7-(1H-Indol-3-yl)-7-(1H-indol-2-yl)-heptanoic acid hydroxyamide] | – | 0.82 ± 0.07 | 0.4 to 2.3 | 0.67 ± 0.01 | 0.6 to 5.8 | – |
| O=C(C=Cc1ccc(C(c2c[nH]c3ccccc23)c2c[nH]c3ccccc23)cc1)NO [ST2887, 3-{4-[Bis-(1H-indol-3-yl)-methyl]-phenyl}-N-hydroxy-acrylamide] | – | 2.6 ± 0.3 | 0.4 to 2.3 | 0.6 ± 0.01 | 0.6 to 5.8 | 3.9 ± 0.5 |
